The term CC50 denotes the concentration giving 50% cytotoxicity. High values mean better tolerance by the cells, low ones harm at low concentration.

Drawing on ChEMBL document CHEMBL1129644, “Nucleosides with a twist. Can fixed forms of sugar ring pucker influence biological activity in nucleosides and oligonucleotides?” (J Med Chem, 1996), this text covers CC50 for 7 compounds.

Converted amounts (≈) assume the structure as drawn.

Series [1] in a line: Compound was tested for cytotoxicity against HSV-2 (herpes simplex type 2) of HFF (human foreskin fibroblasts) cells by cytopathogenic effect (CPE) inhibition assay. The following applies: HFF (human foreskin fibroblast) cells. The series is classed as cell-based.
Series [2] in a line: Compound was tested for cytotoxicity against HCMV (human cytomegalovirus) of HFF(human foreskin fibroblasts) cells by cytopathogenic effect (CPE) inhibition assay. In kind it is cell-based. The following applies: HFF (human foreskin fibroblast) cells. Background: Protection from cytopathic effect is a common read-out in antiviral testing.
Series [3] is described as follows: Compound was tested for cytotoxicity against HSV-1 (herpes simplex type-1) of HFF (human foreskin fibroblasts) cells by cytopathogenic effect (CPE) inhibition assay. The series is classed as cell-based. The following applies: HFF (human foreskin fibroblast) cells.
Series [4] can be described thus: Compound was tested for cytotoxicity against HSV-1 (herpes simplex type-1) of HFF (human foreskin fibroblasts) cells. The following applies: HFF (human foreskin fibroblast) cells. In kind it is cell-based.
A short description of series [5]: (§1) Compound was tested for cytotoxicity against HSV-2 (herpes simplex type-2) of HFF (human foreskin fibroblasts) cells in different experiment. In kind it is cell-based. To be noted: HFF (human foreskin fibroblast) cells.
Series [6] is described as follows: (§2) Compound was tested for cytotoxicity against HSV-2 (herpes simplex type-2) of HFF (human foreskin fibroblasts) cells. In kind it is cell-based. To be noted: HFF (human foreskin fibroblast) cells.
The nature of series [7]: Compound was tested for cytotoxicity against HSV-1 (herpes simplex type-1) of HFF (human foreskin fibroblasts) cells in different experiment. In kind it is cell-based. The following applies: HFF (human foreskin fibroblast) cells.
A short description of series [8]: as §1. The following applies: human alphaherpesvirus 2, HFF (human foreskin fibroblast) cells.
A short description of series [9]: as §2. The following applies: human alphaherpesvirus 2, HFF (human foreskin fibroblast) cells.

`Nc1ccn([C@H]2C[C@H](O)[C@@]3(O)CC23)c(=O)n1` (stereo not given in full): the CC50 was determined as 96 µg/mL (≈ 430 µM) in [1], 8.8 µg/mL (≈ 39.4 µM) in series [2] and 68 µg/mL (≈ 305 µM) in [3].
Turning to `Cc1cn(C2C[C@H](O)[C@@H](O)C2)c(=O)[nH]c1=O`, the CC50 in series [4] and in series [5] was more than 10 µg/mL throughout.
For the compound `Nc1nc(O)c2ncn([C@H]3C[C@H](O)[C@@]4(O)CC34)c2n1` (stereo not given in full), the CC50 was more than 100 µg/mL in series [1], 64.3 µg/mL (≈ 244 µM) in series [2] and more than 100 µg/mL in series [3].
As for `O=c1ccn([C@H]2C[C@H](O)[C@@]3(O)CC23)c(=O)[nH]1` (stereo not given in full), the CC50 in [1], in series [2] and in series [3] was more than 100 µg/mL each time.
For `Cc1cn([C@H]2C[C@H](O)[C@@]3(O)CC23)c(=O)[nH]c1=O` (stereo not given in full), the 50% cytotoxic concentration (CC50) in [4] was more than 20 µg/mL; in [1] it was more than 100 µg/mL; in series [5] it was more than 20 µg/mL; in [2], 63.7 µg/mL (≈ 267 µM); in [6] it was more than 20 µg/mL; in [3], more than 100 µg/mL. The 50% cytotoxic concentration (CC50) in series [7] was more than 20 µg/mL.
With `Nc1ncnc2c1ncn2[C@H]1C[C@H](O)[C@@]2(O)CC12` (stereo not given in full), the 50% cytotoxic concentration (CC50) in series [1], in series [2] and in series [3] was more than 100 µg/mL each time.
With `Cc1cn([C@@]23CC2[C@H](O)[C@@H](O)C3)c(=O)[nH]c1=O` (stereo not given in full), the CC50 is more than 50 µg/mL in series [4], more than 20 µg/mL in series [8], more than 50 µg/mL in series [9] and more than 20 µg/mL in series [7].
